Experimental data from ChEMBL document CHEMBL1127569, “Comparison of the conformation of active and nonactive backbone cyclic analogs of substance P as a tool to elucidate features of the bioactive conformation: NMR and molecular dynamics in DMSO and water” (J Med Chem, 1994).
Starred links: 1 amine or outer side, 2 acyl side, 3 side chain; linkers in the order of their positions; H or OH if unused. Positions of bridges follow the written chain, without caps; N, C: chain ends. Non-standard residues stand in square brackets, D forms with d. Residues, ends and D or L forms follow the SMILES beside them. NGly(3-aminopropyl) = O=C(CN(CCCN[*:3])[*:1])[*:2]; N(2-Aminoethyl)Gly = O=C(CN(CCN[*:3])[*:1])[*:2]; Adipoyl = O=C(CCCCC(=O)[*:2])[*:1]; Glutaryl = O=C(CCCC(=O)[*:2])[*:1]; Suc = O=C(CCC(=O)[*:2])[*:1]

How the values were obtained:
Neuromedin-K receptor = target: T1, Neuromedin-K receptor (Homo sapiens, UniProt P29371); test: Tested for the biological activity and selectivity against NK-3 receptor
T1 sequence (P29371 whole entry): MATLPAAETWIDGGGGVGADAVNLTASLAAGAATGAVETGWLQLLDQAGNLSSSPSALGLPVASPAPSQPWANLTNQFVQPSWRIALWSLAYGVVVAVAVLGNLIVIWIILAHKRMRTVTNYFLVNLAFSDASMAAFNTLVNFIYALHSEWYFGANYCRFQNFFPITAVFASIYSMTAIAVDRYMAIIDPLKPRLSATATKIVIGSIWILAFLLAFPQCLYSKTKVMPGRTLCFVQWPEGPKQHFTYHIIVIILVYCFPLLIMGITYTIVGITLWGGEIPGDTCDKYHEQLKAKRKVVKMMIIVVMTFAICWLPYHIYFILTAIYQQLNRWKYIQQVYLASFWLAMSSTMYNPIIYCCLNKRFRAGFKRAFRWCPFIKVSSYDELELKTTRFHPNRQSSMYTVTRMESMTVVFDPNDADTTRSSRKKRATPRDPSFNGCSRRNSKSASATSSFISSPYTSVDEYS

Substance-K receptor = target: T2, Substance-K receptor (Homo sapiens, UniProt P21452); test: Tested for the biological activity and selectivity against NK-2 receptor
T2 sequence (P21452 whole entry): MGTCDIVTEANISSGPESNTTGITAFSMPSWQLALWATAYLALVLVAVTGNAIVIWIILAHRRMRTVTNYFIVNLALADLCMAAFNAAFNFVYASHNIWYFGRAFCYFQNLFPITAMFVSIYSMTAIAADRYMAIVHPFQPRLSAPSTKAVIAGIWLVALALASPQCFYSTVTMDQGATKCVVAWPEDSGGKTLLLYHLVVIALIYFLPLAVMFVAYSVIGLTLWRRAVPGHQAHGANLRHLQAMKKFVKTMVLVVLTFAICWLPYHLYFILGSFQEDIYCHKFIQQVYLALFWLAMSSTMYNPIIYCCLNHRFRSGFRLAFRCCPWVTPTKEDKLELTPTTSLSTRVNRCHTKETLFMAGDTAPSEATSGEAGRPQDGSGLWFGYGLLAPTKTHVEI

Substance-P receptor = Substance-P receptor (Homo sapiens, UniProt P25103); test: Tested for the biological activity and selectivity against NK-1 receptor
Substance-P receptor, sequence (P25103 whole entry): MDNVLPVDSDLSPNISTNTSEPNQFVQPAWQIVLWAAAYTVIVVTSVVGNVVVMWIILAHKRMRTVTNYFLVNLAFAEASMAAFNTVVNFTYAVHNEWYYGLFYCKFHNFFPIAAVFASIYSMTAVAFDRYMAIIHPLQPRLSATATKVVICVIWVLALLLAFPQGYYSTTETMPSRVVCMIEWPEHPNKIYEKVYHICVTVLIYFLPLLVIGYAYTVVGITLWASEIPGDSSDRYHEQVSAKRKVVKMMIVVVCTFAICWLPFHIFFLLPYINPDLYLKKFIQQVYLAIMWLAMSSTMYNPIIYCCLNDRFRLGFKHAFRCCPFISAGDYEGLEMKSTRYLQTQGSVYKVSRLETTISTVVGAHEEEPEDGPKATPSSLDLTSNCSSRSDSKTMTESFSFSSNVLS

Row | SMILES | EC50 (Neuromedin-K receptor) | EC50 (Substance-K receptor) | EC50 (Substance-P receptor)
1 | CSCC[C@H](NC(=O)[C@H](CC(C)C)NC(=O)CN1CCCNC(=O)CCCC(=O)N[C@@H](CCCN=C(N)N)C(=O)N[C@@H](Cc2ccccc2)C(=O)N[C@@H](Cc2ccccc2)C1=O)C(N)=O (RFF[NGly(3-aminopropyl)]LM-NH2; linker N-4 via Glutaryl) | > 10 µM | > 50 µM | 11 nM
2 | CSCC[C@H](NC(=O)[C@H](CC(C)C)NC(=O)CN1CCNC(=O)CCC(=O)NCC(=O)N[C@@H](CCCN=C(N)N)C(=O)N[C@@H](Cc2ccccc2)C(=O)N[C@@H](Cc2ccccc2)C1=O)C(N)=O (GRFF[N(2-Aminoethyl)Gly]LM-NH2; linker N-5 via Suc) | > 10 µM | > 50 µM | > 10000 nM
3 | CSCC[C@H](NC(=O)[C@H](CC(C)C)NC(=O)CN1CCCNC(=O)CCC(=O)N[C@@H](CCCN=C(N)N)C(=O)N[C@@H](Cc2ccccc2)C(=O)N[C@@H](Cc2ccccc2)C1=O)C(N)=O (RFF[NGly(3-aminopropyl)]LM-NH2; linker N-4 via Suc) | > 10 µM | > 50 µM | 180 nM
4 | CSCC[C@H](NC(=O)[C@H](CC(C)C)NC(=O)CN1CCCNC(=O)CCCCC(=O)N[C@@H](CCCN=C(N)N)C(=O)N[C@@H](Cc2ccccc2)C(=O)N[C@@H](Cc2ccccc2)C1=O)C(N)=O (RFF[NGly(3-aminopropyl)]LM-NH2; linker N-4 via Adipoyl) | > 10 µM | > 50 µM | 5 nM
